# According to US7291730B2, “Pyrimidine compounds and their use” (Sumitomo Chemical Company, Limited, priority 2000, dated 2007):
# Test system: Western Flower Thrips (Frankliniella occidentalis)
# Assay: Insecticidal test against western flower thrips, sprayed cucumber leaves (Test Example 3)
# Assay type: in vivo
# Details: 500 ppm, sprayed 20 ml/cup onto cucumber, thirty larvae on cut first foliage leaves, after 7 days
# Protocol: A formulation of a test compound obtained in Formulation Example 5 was diluted with water so that the active ingredient concentration came to 500 ppm to prepare a test spray solution. The seeds of cucumber were planted in polyethylene cups and grown until their first foliage leaves developed, and the above test spray solution was sprayed at the rate of 20 ml/cup onto these cucumber plants. After the chemical solution sprayed onto the cucumber plants was dried, the first foliage leaves were cut off and placed on a water-containing filter paper (70 mm in diameter) in a polyethylene cup (110 mm in diameter). Thirty larvae of western flower thrips (Frankliniella occidentalis) were set free in the polyethylene cup, and the lid was put on the polyethylene cup. After 7 days, the number of surviving insects was examined.
row,SMILES,number of surviving insects
1,C#CCOc1cc(-c2ccccc2)nc(C)n1 [(77)],zero
2,C#CCOc1cc(-c2cccc(F)c2F)ncn1 [(82)],zero
3,CC#CCOc1ncnc(Oc2ccccc2F)c1F [(183)],zero
4,CC#CCOc1cc(OC2CCCC(C)C2)ncn1 (stereo not shown) [(182)],zero
5,C#CC(C)Oc1cc(-c2ccccc2F)ncn1 (stereo not shown) [(150)],zero
6,CC#CCOc1ncnc(Cc2ccccc2F)c1F [(191)],zero
7,CC#CCOc1cc(Oc2ccccc2F)ncn1 [(63)],zero
8,C#CCOc1cc(Oc2c(F)cccc2F)ncn1 [(21)],zero
9,CC#CCOc1cc(-c2ccc(F)cc2)ncn1 [(59)],zero
10,CC#CCOc1cc(Oc2cc(F)ccc2F)ncn1 [(43)],zero
11,CC#CCOc1cc(Cc2ccccc2F)ncn1 [(88)],zero
12,CCC#CCOc1cc(OCC#CCC)ncn1 [(3)],zero
13,C#CCOc1cc(OCC#CCC)ncn1 [(5)],zero
14,C#CCOc1cc(Oc2cccc(Cl)c2)ncn1 [(15)],zero
15,CC#CCOc1cc(Oc2ccc(F)cc2Cl)ncn1 [(16)],zero
16,CC#CCOc1cc(-c2ccccc2F)ncn1 [(55)],zero
17,C#CCOc1cc(-c2ccccc2F)ncn1 [(54)],zero
18,CC#CCOc1cc(Oc2c(F)cc(F)cc2F)ncn1 [(45)],zero

row,SMILES,number of surviving insects
1,CC#CCOc1ncnc(Oc2cccc(F)c2F)c1F [(180)],zero
2,CC#CCOc1ncnc(Oc2c(F)cccc2F)c1F [(190)],zero
3,C#CCOc1cc(-c2ccc(F)cc2)ncn1 [(58)],zero
4,C#CCOc1cc(Oc2ccc(C(F)(F)F)cc2)ncn1 [(20)],zero
5,C#CCOc1cc(OCc2ccccc2)ncn1 [(13)],zero
6,C#CCOc1cc(Oc2ccccc2Cl)ncn1 [(19)],zero
7,C#CCOc1cc(Oc2cccc(C(F)(F)F)c2)ncn1 [(17)],zero
8,C#CC(C)Oc1cc(-c2cccc(F)c2F)ncn1 (stereo not shown) [(134)],zero
9,CC#CCOc1cc(-c2ccc(F)cc2F)ncn1 [(44)],zero
10,CC#CCOc1cc(Cc2c(F)cccc2F)ncn1 [(80)],zero
11,CC#CCOc1cc(OCC#CC(C)(C)C)ncn1 [(7)],zero
12,CC#CCOc1cc(-c2cccc(F)c2F)ncn1 [(83)],zero
13,CC#CCOc1cc(OCC#CCC)ncn1 [(6)],zero
14,C#CCOc1cc(Oc2cccc(C)c2)ncn1 [(29)],zero
15,CC#CCOc1cc(OCC#CC)ncn1 [(1)],zero
16,C#CCOc1cc(Oc2ccccc2)ncn1 [(51)],zero
17,C#CCOc1cc(OCC#CC)ncn1 [(2)],zero
18,CC#CCOc1cc(O[C@@H]2CCC[C@H]2C)ncn1 (relative stereo) [(169)],zero

# Test system: not given
# Assay: not given
# Details: not given
row,melting point [°C],SMILES
1,132.1,"CC#CCOc1cc(Oc2ccc([N+](=O)[O-])cc2F)ncn1 [present compound (65), 4-(2-fluoro-4-nitrophenoxy)-6-(2-butynyloxy)pyrimidine]"
2,65.1,"C#CCOc1cc(-c2ccccc2)ncn1 [present compound (37), 4-phenyl-6-(2-propynyloxy)pyrimidine]"
3,121.2,"CC#CCOc1cc(Oc2cccc(C#N)c2)ncn1 [present compound (40), 4-(2-butynyloxy)-6-(3-cyanophenoxy)pyrimidine]"
4,59.6,"CC#CCOc1cc(-c2ccccc2)ncn1 [present compound (38), 4-(2-butynyloxy)-6-phenylpyrimidine]"
5,64.8,"C#CCOc1cc(Oc2ccccc2C)ncn1 [present compound (27), 4-(2-methylphenoxy)-6-(2-propynyloxy)pyrimidine]"
6,77.5,"CC#CCOc1cc(N(C)c2cccc(F)c2F)ncn1 [present compound (66), 4-(N-methyl-N-(2,3-difluorophenyl)amino)-6-(2-butynyloxy)pyrimidine]"
7,84.9,"CC#CCOc1cc(OCc2cccc(F)c2F)ncn1 [present compound (76), 4-(2,3-difluorobenzyloxy)-6-(2-butynyloxy)pyrimidine]"
8,117.7,"CC#CCOc1cc(Oc2ccc(Cl)cc2F)ncn1 [present compound (4), 4-(2-butynyloxy)-6-(4-chloro-2-fluorophenoxy)pyrimidine]"
9,79.8,"CC#CCOc1cc(Oc2c(F)cccc2F)ncn1 [present compound (33), 4-(2-butynyloxy)-6-(2,6-difluorophenoxy)pyrimidine]"
10,147.6,"CC#CCOc1cc(Nc2cccc(F)c2F)ncn1 [present compound (73), 4-(N-(2,3-difluorophenyl)amino)-6-(2-butynyloxy)pyrimidine]"
11,51.5,"CC#CCOc1cc(Cc2cccc(F)c2)ncn1 [present compound (100), 4-(2-butynyloxy)-6-(3-fluorobenzyl)pyrimidine]"
12,159.3,"CC#CCOc1cc(Nc2ccccc2)ncn1 [present compound (53), 4-anilino-6-(2-butynyloxy)pyrimidine]"

row,SMILES,melting point [°C]
1,"CC#CCOc1cc(OCC#CCC)ncn1 [present compound (6), 4-(2-butynyloxy)-6-(2-pentynyloxy)pyrimidine]",67.4
2,"C#CCOc1cc(Oc2cccc(Cl)c2)ncn1 [present compound (15), 4-(3-chlorophenoxy)-6-(2-propynyloxy)pyrimidine]",71.6
3,"C#CCOc1cc(Oc2ccccc2)ncn1 [present compound (51), 4-phenoxy-6-(2-propynyloxy)pyrimidine]",71.1
4,"C#CCOc1cc(Oc2ccccc2Cl)ncn1 [present compound (19), 4-(2-chlorophenoxy)-6-(2-propynyloxy)pyrimidine]",76.2
